Assay results as given in patent US20110158944A1, “BRAF BIOMARKERS” (priority 2007, published 2011).
Like-named read-outs stand apart in the source and are kept apart here.

Legend:
[1] = system: V600E BRAF homozygous genotype cell lines; test: Cell proliferation IC50 (Cell Titer Glo), summary by genotype; type: cell-based; conditions: Homo sapiens, read-out: IC50 cell proliferation
Protocol: (§1) IC50 Cell proliferation measurements. Cell proliferation was assessed in the 41 tumor cell lines set forth in Table 2 after 4 days of continuous exposure to either the ERK1/2 inhibitor, compound a or the MEK inhibitor compound b (PD0325901) using Promega Cell Titer Glo reagent (Promega Corp, Madison, Wis.). Promega's CellTiter-Glo™ Luminescent Cell Viability Assay is a sensitive method for assaying cell proliferation using a stable form of luciferase to measure ATP as an indicator of viable cells. This reagent allows a homogeneous method of determining cell number by quantitation of ATP. The luciferase luminescent signal produced is proportional to the number of viable cells present in culture.
(§2) A 1000× compound dose response curve, containing 8 dilutions of each compound, was prepared on a 96-well plate. Compounds were diluted in 100% DMSO to the following (1000×) concentrations: compound b: 1000 μM, 333 μM, 111 μM, 37 μM, 12 μM, 4.1 μM, 1.4 μM and 0.5 μM; compound a: 3000 μM, 1000 μM, 333 μM, 111 μM, 37 μM, 12 μM, 4.1 μM and 1.4 μM. This compound source plate was sealed and kept frozen between uses.
(§3) Cells were grown in RPMI 1640 medium supplemented with 10% Fetal Bovine Serum, 2 mM Glutamine and non-essential amino acids or DMEM/F12 Media containing the same supplements. On day zero, cells were trypsinized, counted and plated into wells of a 96-well Wallac TC Isoplate (Perkin-Elmer Wallac, Gaithersburg, Md.) at a density of 1500-2000 cells per well in 50 μl of complete media. An additional 6-8 replicate well of the cells at the same density were plated on a separate Wallac TC Isoplate. This plate was developed on day 1 to determine the cell-growth baseline.
(§4) On day 1 of treatment, compound was diluted to 2× in media and immediately added to the cells as follows: one ml of media was added to each well of a deep-well 96-well plate and 2 μl of 1000× compound was added with mixing to make 2× compound in media. 50 μl of the media containing 2× compound was added to the cell plates in duplicate points so the final concentrations for each well were as outlined in Table 1. The plates were then returned to a 37° C. incubator and left undisturbed for 4 days. […]
(§5) After four days of treatment, the plates were developed with Cell Titer Glo (CTG) reagent (Promega Corp.; Madison, Wis.). […] 100 μl of reagent was added to all treatment and control wells and the plates were gently shaken for 5 minutes then incubated an additional 5 minutes before reading in an Analyst AD (Molecular Devices Corporation; Sunnyvale, Calif.) using the Luminescence settings.
(§6) Data was analyzed in Excel using XLfit 4.2, fit model #205 (Dose Response One Site)

[2] = system: Cell lines with either the heterozygote V600E BRAF mutation or wild type BRAF genotype; test: as above; type: cell-based; conditions: Homo sapiens, read-out: IC50 cell proliferation
Protocol: as §1, §2, §3, §4, §5, §6

[3] = system: N-87; test: Cell proliferation IC50 (Cell Titer Glo); type: cell-based; conditions: Homo sapiens, 96 h, read-out: IC50 cell proliferation
Protocol: as §1, §2, §3
(§7) On day 1 of treatment, compound was diluted to 2× in media and immediately added to the cells as follows: one ml of media was added to each well of a deep-well 96-well plate and 2 μl of 1000× compound was added with mixing to make 2× compound in media. 50 μl of the media containing 2× compound was added to the cell plates in duplicate points so the final concentrations for each well were as outlined in Table 1. The plates were then returned to a 37° C. incubator and left undisturbed for 4 days. The day 1 (baseline) plates were developed by first adding 50 μl media (without compound) to bring the volume in each well to 100 μl, then adding 100 μl of Cell Titer Glo reagent (as below).
(§8) After four days of treatment, the plates were developed with Cell Titer Glo (CTG) reagent (Promega Corp.; Madison, Wis.). Reagent was reconstituted as described in the product insert. 100 μl of reagent was added to all treatment and control wells and the plates were gently shaken for 5 minutes then incubated an additional 5 minutes before reading in an Analyst AD (Molecular Devices Corporation; Sunnyvale, Calif.) using the Luminescence settings.
as §6

[4] = system: A204; test: Cell proliferation IC50 (Cell Titer Glo); type: cell-based; conditions: Homo sapiens, read-out: IC50 cell proliferation
Protocol: as §1, §2, §3, §7, §8, §6

[5] = system: H716; test: Cell proliferation IC50 (Cell Titer Glo); type: cell-based; conditions: Homo sapiens, NCI-H716, 96 h, read-out: IC50 cell proliferation
Protocol: as §1, §2, §3, §7, §8, §6

[6] = system: HT-29; test: Cell proliferation IC50 (Cell Titer Glo); type: cell-based; conditions: Homo sapiens, read-out: IC50 cell proliferation
Protocol: as §1, §2, §3, §7, §8, §6

[7] = system: SK-Mel-5; test: Cell proliferation IC50 (Cell Titer Glo); type: cell-based; conditions: Homo sapiens, read-out: IC50 cell proliferation
Protocol: as §1, §2, §3, §7, §8, §6

[8] = system: WM-115; test: Cell proliferation IC50 (Cell Titer Glo); type: cell-based, human; conditions: 4 days continuous exposure
Protocol: as §1, §2, §3, §7, §8, §6

[9] = system: WM-266-4; test: Cell proliferation IC50 (Cell Titer Glo); type: cell-based, human; conditions: 4 days continuous exposure
Protocol: as §1, §2, §3, §7, §8, §6

| Structure (SMILES) | IC50 ([1]; nine of the nine V600E BRAF homozygous genotype cell lines tested) | IC50 ([2]; 25 of the 32 cell lines tested (heterozygote V600E or wild type BRAF)) | IC50 ([3]; N-87, Gastric, BRAF V600V Wild type, 4 days continuous exposure) | IC50 ([4]; 96 h, A204, Rhabdomyosarcoma, BRAF V600V Wild type, 4 days continuous exposure) | IC50 ([5]; H716, Colon, BRAF V600V Wild type, 4 days continuous exposure) | IC50 ([6]; 96 h, HT-29, Colon, BRAF V600E Heterozygous, 4 days continuous exposure) | IC50 ([7]; 96 h, SK-Mel-5, Melanoma, BRAF V600E Heterozygous, 4 days continuous exposure) | IC50 ([8]; Homo sapiens, WM-115, 96 h, WM-115, Melanoma, BRAF V600D Heterozygous, read-out: IC50 cell proliferation) | IC50 ([8]; WM-115, Melanoma, BRAF V600D Heterozygous, read-out: IC50 cell proliferation) | IC50 [1] | IC50 [2] | IC50 [3] | IC50 ([4]; A204, 96 h) | IC50 [5] | IC50 ([6]; HT-29, 96 h) | IC50 ([7]; SK-MEL-5, 96 h) | IC50 ([8]; Homo sapiens, WM-115, 96 h, read-out: IC50 cell proliferation, WM-115, Melanoma, BRAF V600D Heterozygous) | IC50 ([8]; read-out: IC50 cell proliferation, WM-115, Melanoma, BRAF V600D Heterozygous) | IC50 ([9]; Homo sapiens, WM 266-4, 96 h, read-out: IC50 cell proliferation, WM-266-4, Melanoma, BRAF V600D Heterozygous) | IC50 ([9]; read-out: IC50 cell proliferation, WM-266-4, Melanoma, BRAF V600D Heterozygous) |
| --- | --- | --- | --- | --- | --- | --- | --- | --- | --- | --- | --- | --- | --- | --- | --- | --- | --- | --- | --- | --- |
| O=C(Nc1ccc2[nH]nc(-c3ccncc3)c2c1)C1CCN(CC(=O)N2CCN(c3ccc(-c4ncccn4)cc3)CC2)C1 (centres unmarked) [cpd. a] | < 100 nM | > 100 nM | 307 nM | > 3000 nM | 334 nM | 50 nM | 66 nM | < 100 nM | 60 nM | – | – | – | – | – | – | – | – | – | – | – |
| O=C(NOC[C@H](O)CO)c1ccc(F)c(F)c1Nc1ccc(I)cc1F [cpd. b, PD0325901] | – | – | – | – | – | – | – | – | – | ≤ 10 nM | > 10 nM | 64 nM | 1000 nM | 164 nM | 20 nM | 8 nM | < 10 nM | 10 nM | < 10 nM | 10 nM |
